One test addresses recombinant human PARP (Homo sapiens, UniProt P09874). In words: PARP inhibitory activity (in vitro assay). Type of test: biochemical. Conditions: 32P-NAD, 15 minutes at room temperature. How it is done: B. PARP Inhibitory Activity (In Vitro Assay)
The recombinant human PARP (5.3 mg protein/ml) were incubated with a test compound in a 100 μl reaction buffer containing the indicated concentration of 1 mCi/ml ^32P-NAD, 50 mM Tris-HCl, 25 mM MgCl2, 1 mM DTT (dithiothreitol), 0.05 mM NAD (nicotinamido adenine dinucleotide), 1 mg/ml activated DNA, pH8.0. Incubation was for 15 minutes at a room temperature and the reaction was stopped by the addition of 200 μl of ice-cold 20% tricholoroacetic acid followed by rapid filtration through GF/B filters. The filters were treated with scintillation fluid and acid-insoluble counts were measured for quantification of unit activity.
PARP inhibitory activity (%)=[1-(enzyme activity with test compound)/(enzyme activity with vehicle)]×100

Test [1] relates to Mice MPTP(N-methyl-1,2,3,6-tetrahydropyridine)-induced Parkinson's model. Kind of test: Effect on the level of striatal dopamine and its metabolite in mice MPTP-induced Parkinson's model. Type of test: in vivo. The settings on record: 32 mg/kg, two i.p. injections, four days after last MPTP, *P < 0.05 vs MPTP. The protocol: C. Effect of Test Compound on the Level of Striatal Dopamine and its Metabolite in Mice MPTP([…])-induced Parkinson's model
Mice received four i.p. injections of MPTP-HCl (20 mg/kg) in saline at 2 hours intervals and two i.p. injections of Test compound at 30 minutes before 1st injection and 3rd injection of MPTP.
Four days after the last MPTP injection, mice were sacrificed, brains were quickly removed, and striata were dissected out on an ice-cold glass Petri dish. Samples were homogenized in a buffer of 0.1M perchloric acid containing isoproterenol as internal standard. HPLC with electrochemical detection was used to measure striatal levels of DA (dopamine), DOPAC (dihydroxyphenylacetic acid) and HVA (homovanilic acid).
The level of DA, DOPAC and HVA were expressed as a percentage of Normal taken as the 100%.

pIC50: −log10 of the molar value.

We go through four compounds from patent US20040077667A1, “Quinazolinone derivatives” (priority 2000, published 2004).

Sequence of recombinant human PARP (P09874 whole entry): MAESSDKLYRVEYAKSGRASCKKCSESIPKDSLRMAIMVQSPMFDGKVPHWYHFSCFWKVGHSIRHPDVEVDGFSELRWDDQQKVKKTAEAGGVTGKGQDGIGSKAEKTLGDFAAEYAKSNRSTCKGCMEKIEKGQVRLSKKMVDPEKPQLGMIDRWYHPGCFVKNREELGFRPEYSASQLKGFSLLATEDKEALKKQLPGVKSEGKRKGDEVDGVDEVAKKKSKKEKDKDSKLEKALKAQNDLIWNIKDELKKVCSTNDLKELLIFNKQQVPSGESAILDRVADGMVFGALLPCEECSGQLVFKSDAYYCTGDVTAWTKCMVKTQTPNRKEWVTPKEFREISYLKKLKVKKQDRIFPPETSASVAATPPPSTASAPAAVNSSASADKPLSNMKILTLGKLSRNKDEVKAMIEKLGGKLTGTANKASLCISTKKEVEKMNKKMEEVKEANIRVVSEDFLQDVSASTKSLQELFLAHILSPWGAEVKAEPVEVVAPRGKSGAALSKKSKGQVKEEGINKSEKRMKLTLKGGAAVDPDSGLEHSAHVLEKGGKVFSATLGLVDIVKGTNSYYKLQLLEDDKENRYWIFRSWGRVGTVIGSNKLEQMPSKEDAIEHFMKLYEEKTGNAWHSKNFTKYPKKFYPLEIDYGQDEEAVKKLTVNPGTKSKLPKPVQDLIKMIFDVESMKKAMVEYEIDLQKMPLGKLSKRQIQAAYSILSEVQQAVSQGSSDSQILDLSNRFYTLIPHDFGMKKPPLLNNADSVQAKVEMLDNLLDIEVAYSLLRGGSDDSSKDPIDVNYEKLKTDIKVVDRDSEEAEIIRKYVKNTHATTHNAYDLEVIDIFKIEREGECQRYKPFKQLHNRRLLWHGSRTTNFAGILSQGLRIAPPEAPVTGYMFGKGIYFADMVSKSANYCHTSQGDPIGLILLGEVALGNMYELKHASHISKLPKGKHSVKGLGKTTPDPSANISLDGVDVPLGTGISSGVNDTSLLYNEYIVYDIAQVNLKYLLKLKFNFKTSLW

What is called pIC50 is −log10 of the IC50, conventionally taken in molar units. In the case of `O=c1[nH]c(CCCN2CC=C(c3ccccc3)CC2)nc2cccc(Cl)c12` [Compound A, 5-chloro-2-[3-(4-phenyl-3,6-dihydro-1(2H)-pyridinyl)propyl]-4(3H)-quinazolinone], the pIC50 at recombinant human PARP is over 6.30. Besides, the Dopamine levels in test [1] (striatal DA as percentage of Normal (100%)) is 59* %. Also, the DOPAC levels in test [1] (striatal DOPAC as percentage of Normal (100%)) is on record as 58* %. In test [1] (striatal HVA as percentage of Normal (100%)), the HVA levels was 64* %. Turning to `O=c1[nH]c(/C=C/CN2CC=C(c3ccc(F)cc3)CC2)nc2c(Cl)cccc12` [Compound B, 8-chloro-2-{(1E)-3-[4-(4-fluorophenyl)-3,6-dihydro-1(2H)-pyridinyl]-1-propenyl}-4(3H)-quinazolinone], on recombinant human PARP, the pIC50 was over 6.30. Regarding `O=c1[nH]c(CCCN2CC=C(c3ccncc3)CC2)nc2c(Cl)cccc12` [Compound C, 8-Chloro-2-{[4-(4-pyridinyl)-3,6-dihydro-1(2H)-pyridinyl]propyl}-4(3H)-quinazolinone], the pIC50 on recombinant human PARP is over 6.30. The same measure, in the same setting: with `Cc1cccc2c(=O)[nH]c(CCCN3CCc4c([nH]c5ccccc45)C3)nc12` [Compound D, 8-methyl-2-[3-(1,3,4,9-tetrahydro-2H-pyrido[3,4-b]indol-2-yl)propyl]-4(3H)-quinazolinone] the figure was over 6.30.
